Like-named read-outs stand apart in the source and are kept apart here.
Assays:
kappa opioid receptor [1] = target: T1, kappa opioid receptor (Homo sapiens, UniProt P41145); assay: GTPγS binding assay (G-protein activation); assay type: biochemical; details: for EC50: 3 parameter nonlinear regression, nc = did not converge; for GTPγS Emax (% U60): relative to U69,593 = 100% Emax
Target sequence in this assay (P41145 whole entry, the tested form may be a part): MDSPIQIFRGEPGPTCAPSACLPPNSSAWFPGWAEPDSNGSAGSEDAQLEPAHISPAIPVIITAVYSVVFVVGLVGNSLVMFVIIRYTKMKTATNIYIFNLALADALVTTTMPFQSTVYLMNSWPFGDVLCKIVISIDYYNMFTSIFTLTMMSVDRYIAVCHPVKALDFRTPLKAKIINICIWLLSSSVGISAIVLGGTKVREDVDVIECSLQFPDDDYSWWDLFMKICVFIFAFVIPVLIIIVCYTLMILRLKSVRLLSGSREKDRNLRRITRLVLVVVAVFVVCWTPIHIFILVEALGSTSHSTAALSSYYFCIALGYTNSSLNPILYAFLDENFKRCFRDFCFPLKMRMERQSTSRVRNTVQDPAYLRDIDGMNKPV

kappa opioid receptor [2] = target: T1, kappa opioid receptor; assay: PathHunter DiscoverX β-arrestin2 recruitment (enzyme fragment complementation) assay; assay type: cell-based; details: for EC50: 3 parameter nonlinear regression, nc = did not converge; for β-arrestin2 maximum stimulation observed at 10 μM (starred Emax cells / % max at 10 uM): * compounds that did not reach plateau; for β-arrestin2 Emax (% U60): relative to U69,593 = 100% Emax, ~ did not plateau at 100%
Target sequence in this assay (P41145 whole entry, the tested form may be a part): as above
Target sequence in this assay (P32121 whole entry partner, the tested form may be a part): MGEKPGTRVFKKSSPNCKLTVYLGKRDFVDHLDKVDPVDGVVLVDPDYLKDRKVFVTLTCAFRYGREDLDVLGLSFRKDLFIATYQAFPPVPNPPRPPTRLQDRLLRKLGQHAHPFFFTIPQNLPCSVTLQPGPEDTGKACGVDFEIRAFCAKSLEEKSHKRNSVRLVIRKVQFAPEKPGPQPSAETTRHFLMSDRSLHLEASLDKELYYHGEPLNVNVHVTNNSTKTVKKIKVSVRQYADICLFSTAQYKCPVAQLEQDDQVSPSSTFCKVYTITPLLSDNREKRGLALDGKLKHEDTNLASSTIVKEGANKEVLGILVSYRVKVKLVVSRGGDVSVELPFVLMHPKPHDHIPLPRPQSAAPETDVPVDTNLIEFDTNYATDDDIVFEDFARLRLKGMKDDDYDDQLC

[3] = mouse, microsomes
Experimental: (§1) Microsomal stability was determined using mouse hepatic microsomes and LC/MS detections over time (Zhou et al., 2013, 22).

kappa opioid receptor [4] = target: T1, kappa opioid receptor; assay: Bias analysis by operational model, G protein vs βarrestin2, U69,593 as reference agonist; details: U69,593 reference agonist; global parameter fitting
Target sequence in this assay (P41145 whole entry, the tested form may be a part): as the sequence (P41145 whole entry, the tested form may be a part) above

[5] = Microsomal stability, LC/MS detection over time; details: mouse hepatic microsomes
Experimental: as §1

Compound	EC50 (kappa opioid receptor [1])	EC50 (kappa opioid receptor [2]; read-out: β-arrestin2 EC50)	β-arrestin2 maximum stimulation observed at 10 μM (starred Emax cells / % max at 10 uM) (kappa opioid receptor [2])	Microsomal Stability [3]	GTPγS Emax (% U60) (kappa opioid receptor [1])	β-arrestin2 Emax (% U60) (kappa opioid receptor [2])	Bias (bias factor 10^ΔΔ(logτ/KA) Gprotein-Barr2) (kappa opioid receptor [4])	KOR potency / activity in words (SAR commentary) (kappa opioid receptor [1])	GTPγS maximum stimulation observed at 10 μM (starred Emax cells) (kappa opioid receptor [1]; * compounds that did not reach plateau, 10 μM)	EC50 (kappa opioid receptor [2]; β-arrestin2 EC50 (nM))	Microsomal Stability ([5]; Table 1, head prints no unit (b175 gives min))	Microsomal Stability [5]
FC(Cc1nnc(-c2ccccn2)n1Cc1cccs1)c1ccccc1 (stereo not drawn) [Compound 46]	1.06 µM	> 10000 nM	64* % U60	69.7 min								
Fc1ccc(CCc2nnc(-c3ccccn3)n2Cc2cccs2)cc1 [Compound 26]	0.288 µM	3020 nM		3.1 min	92 % U60	75 % U60						
Clc1ccc(CCc2nnc(-c3ccccn3)n2Cc2ccco2)cc1 [Compound 52]	0.099 µM	4530 nM		3.3 min	84 % U60	191 % U60						
Cc1ccc(CCc2nnc(-c3nccn3C)n2Cc2cccs2)cc1C(F)(F)F [Compound 56]	0.095 µM	888 nM			105 % U60	98 % U60	12					
OC(Cc1ccccc1)c1nnc(-c2ccccn2)n1Cc1ccco1 (stereo not drawn) [Compound 41]			0* % U60	17.4 min				loss in potency	22* % U60			
Cc1ccc(CCc2nnc(-c3ccccn3)n2Cc2ccsc2)cc1C(F)(F)F [Compound 6]	0.012 µM	813 nM		1.0 min								
Brc1cccc(CCc2nnc(-c3ccccn3)n2Cc2cccs2)c1 [Compound 29]		5020 nM		3.1 min	89 % U60	114 % U60						
Cc1ccc(CCc2nnc(-c3ccccn3)n2Cc2cccnc2)cc1C(F)(F)F [Compound 11]	0.07 µM	479 nM		1.7 min	90 % U60	105 % U60						
Cn1ccnc1-c1nnc(CCc2ccc(Cl)cc2)n1Cc1nccs1 [Compound 53]	2.25 µM	5020 nM		2.4 min	94 % U60	81 % U60						
Cc1ccc(CCc2nnc(-c3cccnc3)n2Cc2cccs2)cc1C(F)(F)F [Compound 15]			14* % U60	1.0 min	85 % U60							
Cc1ccc(/C=C/c2nnc(-c3ccccn3)n2Cc2nccs2)cc1C(F)(F)F [Compound 48]	0.767 µM		51* % U60	19.1 min	82 % U60							
FC(Cc1ccccc1)c1nnc(-c2ccccn2)n1Cc1ccco1 (stereo not drawn) [Compound 43]	3.83 µM	> 10000 nM	7* % U60	9.1 min								
Brc1ccc(CCc2nnc(-c3ccccn3)n2Cc2cccs2)cc1 [Compound 28]		963 nM		4.6 min	96 % U60	106 % U60						
C(=C/c1nnc(-c2ccccn2)n1Cc1ccco1)/c1ccccc1 [Compound 39]	1.79 µM		19* % U60	12.6 min								
Cc1ccc(/C=C/c2nnc(-c3ccccn3)n2Cc2nccs2)cc1C(F)(F)F [50 (UNC9078)]	0.767 µM		51.6 (% max at 10 uM) % U60	10.1 min	81.6 % U60							
Cc1ccc(/C=C/c2nnc(-c3nccn3C)n2Cc2cccs2)cc1C(F)(F)F [Compound 50]	1.01 µM	55800 nM	38* % U60	12.2 min	77 % U60							
Clc1ccc(CCc2nnc(-c3ccccn3)n2Cc2cccs2)cc1 [Compound 27]	0.035 µM	3740 nM		3.3 min	93 % U60	102 % U60						
Cc1ccc(CCCN(CCCc2ccco2)C(=O)c2ccccn2)cc1C(F)(F)F [Compound 64]	3.06 µM	> 10000 nM	26* % U60	1.0 min	88 % U60							
Cc1ccc(CCc2nnc(-c3ccccn3)n2Cc2nccs2)cc1C(F)(F)F [Compound 7]	0.051 µM	3570 nM		2.1 min	63 % U60	82 % U60						
Cc1ccc(CCc2nnc(-c3ccccn3)n2Cc2ccco2)cc1C(F)(F)F [Compound 2]					90 % U60	119 % U60				788 nM	0.9	0.9 min
